Reference: publication PMC7849011, “Defining the Antimalarial Activity of Cipargamin in Healthy Volunteers Experimentally Infected with Blood-Stage Plasmodium falciparum” (Antimicrobial Agents and Chemotherapy, 2021)
Converted amounts (≈) assume the structure as drawn. “And” between values parts separate entries of the source, which are not always exact repeats. Equal values may be shown once. Read-outs that look alike come from different tables or passages of the source.

What was measured:
Plasmodium falciparum = conditions: cited from earlier work
rodent malaria model = system: rodent malaria model; design: method as in PMID 20813948; conditions: cited from earlier work
P. falciparum [1] = test: Population PK/PD modelling (Emax model) and dose simulation; type: in vivo, Plasmodium falciparum
Protocol: Data preparation, exploration, model definition, model evaluation and simulations were performed in R (version 3.5.1) and the R package IQRtools (version 1.0.6; IntiQuan, Basel, Switzerland) within the software package MonolixSuite 2018R2 (Lixoft, Antony, France). The MIC and the minimum parasiticidal concentration that achieves 90% of maximum effect (MPC90) were derived from the PK/PD model. Simulations were performed to predict the minimum effective single dose, defined as the dose that clears 10^9 parasites/ml. Further detail on PK/PD modeling methods is presented in Text S1.
Pharmacokinetic/Pharmacodynamic modelling methods and results […]
The objectives of the PK/PD modelling anal ysis w ere:
1. To develop a population PK model of cipar gamin in healthy subjects inoculated with blood stage P. falciparum .
2. To char acterize the PK/PD relationship between cipargamin pharmacokinetics and parasite cl ear ance in h eal th subjects inoculated with blood stage P. falcipar um .
3. To determine the minimum inhibitory concent ration (M IC ) of cipargamin .
4. To establish the minimum effective cipar gamin single dose required to kill 10 9
Data preparation, exploration, model definition, model evaluation and simulations were performed in R (version 3.5.1) and the R package IQRtools (version 1.0.6, IntiQuan GmbH, Basel, Switzerland) withi n the software package MonolixSuite2018R2 (Li xoft, Anton y, Fran ce) which implemen ts stochastic approx imation ex pectation-maximisation (SAEM) algorithm for parameter estimation.
One-, two- and three-compartment with different absorption and elimination models were tested. Zero- and first-order absorption models wi th or without lag time were examined. Data below the lower limit of quantitation ( LLO Q; 0.001 µg/ m L) were treated using a left - censoring method. Between subject vari abilit y ( BSV) of the PK parameters was assumed to be normally distributed on log -scale. The random effects across the par ameters within an individual were modelled according to a multivari ate normal distribution (MVN). BS V w as […]
supported by the data.The residual unexplained variabilit y (RUV) was tested using a proportional or combined error models.
Population PK/PD modelling
A sequential PK/PD modelling approach was used in which the empirical Bayes estimates of individual PK parameters were us ed as r egression parameters for the PK/P D model. The observations below the limit of detection (LOD; 10 parasites/mL) were mo del led using a l eft-censoring method. In this anal ysis, the changes in parasitemia over time in the presen ce of antimalarial dru g are ass umed to be a result of the differen ce b etween p ar asite growth rate (k grow ) and the r ate at wh ich parasites are killed b y the drug (k k ill ) with a baseline parasitemia (P L base ) at time t 0 (time of inoculation). Diff erent structural PK/PD models were tested to assess the relationship of cipar gamin plasma concentration on the parasite ki lling rate. The E max model assumed a direct effect of cipargamin plasma concent rations on parasite killing.
The turnover model assumed an indirect effect of cipargamin plasma concentrations on parasite killing due to lag in the PD processes (i.e. the kinetics of dru g-receptor binding). The effect compartment mod el assumed an indirect ef fect of cipar gamin plasm a concentration on parasite killing due to biophase equilibration. This model can be interpreted as the dela y for the drug to reach the site of action in which the cip ar gamin concentrations i n the eff ect […]
compartment drives the d rug eff ect. The p arasite clear an ce model assumed that the observed parasites were a mixture of living and dead parasites and that the cipar gami n plasma […]
PD parameters wer e mod elled assuming a log-normal distribution with exception of ln-transformed b aseline par asite values (parasit emia at time of inoculation) w here a no rmal distribution was assumed. […]
were fixed to 0.2. […]

Plasmodium berghei = system: Plasmodium berghei; design: method as in PMID 25114127, PMID 25487807; conditions: human PK data with preclinical PK/PD analysis; cited from earlier work
P. falciparum 3D7 = test: Induced blood-stage malaria (IBSM) volunteer infection study: parasitemia by 18S rRNA qPCR; type: in vivo, Plasmodium falciparum; conditions: for Log10PRR48 (95%CI) / Parasite Clearance Half-Life (95%CI): 10 mg
Source text: A single cohort of eight subjects was inoculated intravenously with P. falciparum 3D7-infected human erythrocytes (approximately 1,800 viable parasites) as previously described ([24]). Parasite growth was monitored by collecting blood samples and performing quantitative PCR (qPCR) targeting the gene encoding P. falciparum 18S rRNA ([25]). […] The dose of cipargamin selected was predicted to be subtherapeutic based on preclinical modeling ([7]) and pharmacokinetic data obtained in previous clinical studies ([8]) and thus chosen to facilitate modeling to estimate the pharmacokinetic/pharmacodynamic relationship. To monitor total parasitemia, blood samples were collected for 18S rRNA qPCR before inoculation, on day 3, twice daily on days 4 to 6, pretreatment on day 7, and 4, 8, 12, 16, 24, 30, and 36 h posttreatment, twice daily from day 9 to day 11, and every 1 to 3 days until day 35. Blood samples for gametocytemia measurements were collected on day 11, every 1 to 3 days between day 15 and day 29, and on day 35. […] Analyses were performed in R version 3.3.0. The PRR and parasite clearance half-life were estimated using the slope of the optimal fit for the log-linear relationship of the parasitemia decay as described previously ([27]).

P. falciparum [2] = conditions: cited from earlier work
[3] = plasma concentration, PK/PD model, 10 mg cohort
[4] = 10 mg single oral dose, 8 healthy subjects, IBSM

## C[C@H]1Cc2c([nH]c3cc(Cl)c(F)cc23)[C@@]2(N1)C(=O)Nc1ccc(Cl)cc12 [cipargamin]
Plasmodium falciparum
  in vitro activity against P. falciparum stages: active against both asexual and sexual stages
  inhibition of early- and late-stage gametocyte development in vitro: potent inhibitor
  inhibition of oocyst development in vitro: potent inhibition
Rodent malaria model
  cure in rodent malaria model: single-dose cure was demonstrated
P. falciparum [1]; PK/PD model, 10 mg
  PRR48 actual, median (95% CI): 2.59 (1.89 – 3.32) log10 unit
  Time above MIC, median (95% CI): 1.96 (1.59 –2.44) days
  Time above MPC90, median (95% CI): 0.89 (0.63–1.26) days
P. falciparum [1]; final PK/PD Emax model, Hill coefficient fixed to 5
  Emax, maximum parasite killing rate: 0.23 h⁻¹
P. falciparum [1]; [3]
  MIC, median (95% CI): 11.6 (9.9 – 13.3) ng/ml and 11.6 ng/ml
  MPC90, minimum parasiticidal concentration that achieves 90% of maximum effect, median (95% CI): 23.5 (19.9 – 27.4) ng/ml and 23.5 ng/ml
P. falciparum [1]; simulation in patients with malaria, 500 patients per dose, up to day 28
  minimum effective single dose predicted to clear 10^9 parasites/ml: 95 mg
Plasmodium berghei
  daily dose predicted to be sufficient to clear parasitemia in malaria patients: 30 mg
P. falciparum 3D7; 10 mg single oral dose
  time to observed reduction in parasitemia: ≤ 24 h
P. falciparum 3D7; [4]
  log10 parasite reduction ratio over 48 h postdose (PRR48), cohort-specific: 3.63
  parasite clearance half-life, cohort-specific: 3.99 h
P. falciparum 3D7; 10 mg single oral dose, all 8 subjects
  time of parasite regrowth after dosing: 3 to 8 days
P. falciparum 3D7; subject 1
  Log10PRR48 (95%CI): 4.22 (3.15, 5.29)
  Parasite Clearance Half-Life (95%CI): 3.42 (2.73, 4.59) h
P. falciparum 3D7; subject 2
  Log10PRR48 (95%CI): 5.84 (4.79, 6.90)
  Parasite Clearance Half-Life (95%CI): 2.47 (2.10, 3.02) h
P. falciparum 3D7; subject 3
  Log10PRR48 (95%CI): 4.09 (3.45, 4.73)
  Parasite Clearance Half-Life (95%CI): 3.53 (3.05, 4.19) h
P. falciparum 3D7; subject 4
  Log10PRR48 (95%CI): 2.18 (1.62, 2.73)
  Parasite Clearance Half-Life (95%CI): 6.64 (5.30, 8.90) h
P. falciparum 3D7; subject 5
  Log10PRR48 (95%CI): 4.23 (3.48, 4.98)
  Parasite Clearance Half-Life (95%CI): 3.42 (2.90, 4.15) h
P. falciparum 3D7; subject 6
  Log10PRR48 (95%CI): 1.28 (0.85, 1.71)
  Parasite Clearance Half-Life (95%CI): 11.39 (8.47, 17.37) h
P. falciparum 3D7; subject 7
  Log10PRR48 (95%CI): 4.12 (3.22, 5.03)
  Parasite Clearance Half-Life (95%CI): 3.51 (2.87, 4.49) h
P. falciparum 3D7; subject 8
  Log10PRR48 (95%CI): 4.63 (4.34, 4.92)
  Parasite Clearance Half-Life (95%CI): 3.12 (2.93, 3.33) h
P. falciparum [2]; 10 mg single dose, patients with P. falciparum malaria
  parasite clearance half-life: 4.35 h
P. falciparum [2]; 30 mg per day for 3 days, P. falciparum malaria patients
  parasite clearance half-life: 0.90 h
P. falciparum [2]; 30 mg single dose (highest tested), phase 2a
  parasite clearance half-life: 1.47 h
P. falciparum [2]; 3-day regimen of 30 mg daily, patients infected with P. falciparum or Plasmodium vivax, Thailand
  clearance of parasitemia in patients: demonstrated to clear parasitemia
P. falciparum [2]; patients with P. falciparum malaria, doses 10, 15, 20 and 30 mg
  MIC estimated in patients: 0.1 ng/mL (≈ 0.256 nM)
